Measurements published in patent USRE45173E1, “Inhibitors of CYP 17” (Novartis AG, priority 2009, dated 2014).

Experiments:
[1] = biological target: recombinant human CYP17 enzyme (Homo sapiens (Human), UniProt P05093); experiment: Cytochrome P450, 17-20 lyase (CYP17-lyase) assay, tritiated acetic acid release from 17-α-hydroxy pregnenolone [21-3H]; format: biochemical; conditions: human CYP17, substrate 0.25 μM; read-out: Lyase IC 50 nM Human/Rat (Human)
Summary of the method: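 Membranes of cells expressing human CYP17 incubated 90 min at room temperature with [21-3H]17α-hydroxypregnenolone and 4.2 mM NADPH in 50 mM phosphate pH 7.5. Released tritiated acetic acid separated from steroids by charcoal and counted by scintillation; IC50 from sigmoidal fit of % inhibition.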

[2] = biological target: rat CYP17 lyase (Rattus norvegicus (Rat), UniProt P11715); experiment: rat CYP 17 Lyase model, rat testes microsomes as the source; format: biochemical; conditions: for inhibition at 0.1 µM: 100 nM compound, read-out: rCYP17 Lyase % Inh @ 100 nM; for IC50: rat testes microsomes, substrate 0.5 μM, read-out: Lyase IC 50 nM Human/Rat (Rat)
Sequence of rat CYP17 lyase (P11715 whole entry): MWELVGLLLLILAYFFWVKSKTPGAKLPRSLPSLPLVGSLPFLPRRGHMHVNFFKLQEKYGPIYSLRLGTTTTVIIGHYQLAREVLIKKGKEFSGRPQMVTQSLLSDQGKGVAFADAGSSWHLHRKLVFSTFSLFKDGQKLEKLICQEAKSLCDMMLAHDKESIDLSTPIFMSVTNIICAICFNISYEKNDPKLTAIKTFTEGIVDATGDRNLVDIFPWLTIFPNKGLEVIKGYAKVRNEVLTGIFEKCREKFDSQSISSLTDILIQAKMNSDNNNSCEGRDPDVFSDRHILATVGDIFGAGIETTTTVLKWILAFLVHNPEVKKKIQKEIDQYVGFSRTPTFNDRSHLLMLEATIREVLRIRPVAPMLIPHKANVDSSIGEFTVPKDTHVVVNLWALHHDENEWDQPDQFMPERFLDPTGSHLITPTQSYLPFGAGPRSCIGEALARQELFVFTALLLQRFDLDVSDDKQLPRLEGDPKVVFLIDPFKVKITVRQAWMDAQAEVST
Description: For routine screening, the assay was set up with 16 μg of enzyme in 50 μL reaction volume. 17α-hydroxy pregnenolone [21-3H] was added to a final concentration of 0.25 μM. NADPH is used at a final concentration of 4.2 mM. Total reaction volume was made up to 50 μL with 50 mM Phosphate buffer pH 7.5. The reaction mixture was incubated at room temperature for 90 minutes with gentle shaking. The reaction was stopped by the addition of 100 μL of buffer. 500 μL of 5% freshly prepared activated charcoal was added to the solution and mixed well by vortexing. The samples were centrifuged at 17568×g for 5 minutes. (14000 rpm). The supernatant was carefully transferred to fresh tube and 1.3 mL of scintillation fluid was added, mixed by vortexing.
The radioactivity was measured in a 1450 MicroBeta TriLux™ scintillation counter from Wallac-Perkin Elmer®, USA. The measurements were carried out in 2.0 mL Eppendorforf™ tubes. Each tube was counted for 1 minute. The amount of tritiated acetic acid released is proportional to the lyase activity. Percent lyase activity in presence of inhibitor was calculated using the formula given below.
[formula] • Sample: Enzyme reaction in presence of inhibitor. • Positive control: Enzyme reaction without inhibitor but containing DMSO at 1% final concentration. • Blank-Contains all reagents except enzyme. % Inhibition=100%−% Lyase activity
For IC50 determination, the % inhibition was plotted as a function of inhibitor concentration. The data was fitted to sigmoidal equation using Graphpad Prism® software IV to generate IC50 values.
For the rat CYP 17 Lyase Model:
The same procedure described above was used but using rat testes microsomes as the source and with a substrate concentration of 0.5 μM.

Sequence of recombinant human CYP17 enzyme (P05093 whole entry): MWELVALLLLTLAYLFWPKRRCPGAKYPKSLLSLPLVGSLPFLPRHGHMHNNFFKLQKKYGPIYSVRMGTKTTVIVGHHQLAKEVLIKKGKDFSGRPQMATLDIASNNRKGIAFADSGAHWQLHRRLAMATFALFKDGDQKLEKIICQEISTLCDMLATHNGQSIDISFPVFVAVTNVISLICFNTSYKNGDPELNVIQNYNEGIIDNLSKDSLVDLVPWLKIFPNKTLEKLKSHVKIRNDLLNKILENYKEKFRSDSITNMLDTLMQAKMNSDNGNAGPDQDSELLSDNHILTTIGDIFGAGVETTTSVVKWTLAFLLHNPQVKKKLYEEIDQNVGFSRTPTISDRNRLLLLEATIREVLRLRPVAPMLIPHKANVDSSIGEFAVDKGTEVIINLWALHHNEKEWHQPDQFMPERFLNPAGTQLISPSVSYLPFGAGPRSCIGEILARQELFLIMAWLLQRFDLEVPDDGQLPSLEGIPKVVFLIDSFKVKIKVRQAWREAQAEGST

IC50 [1] | inhibition at 0.1 µM [2] | IC50 [2] | SMILES
76 nM | 88% | 12 nM | Cc1ccncc1N1CCN(c2ccc(F)cc2)C1=O [Example 18A, 1-(4-Fluoro-phenyl)-3-(4-methyl-pyridin-3-yl)-imidazolidin-2-one]
23 nM | – | 12 nM | COc1ccncc1N1CCN(c2ccc3ncsc3c2)C1=O [Example 124A, 1-Benzothiazol-6-yl-3-(4-methoxy-pyridin-3-yl)-imidazolidin-2-one]
6.5 nM | – | 2 nM | Cc1ccncc1N1CCN(c2cccc(C(F)(F)F)c2)C1=O [Example 70A, 1-(4-Methyl-pyridin-3-yl)-3-(3-trifluoromethyl-phenyl)-imidazolidin-2-One]
9.4 nM | – | 10 nM | COc1cc(N2CCN(c3cnccc3C)C2=O)ccn1 [Example 72A, 1-(2-Methoxy-pyridin-4-yl)-3-(4-methyl-pyridin-3-yl)-imidazolidin-2-one]
4 nM | 61% | 52 nM | Cc1ccncc1N1CCN(c2ccc3[nH]ncc3c2)C1=O [Example 28A, 1-(1H-Indazol-5-yl)-3-(4-methyl-pyridin-3-yl)-imidazolidin-2-one]
